The subject of test [1] is Control mitochondria. Nature of the test: Respiration rate from oxygen consumption (oxygen electrode), Control mitochondria. Type of test: biochemical, Saccharomyces cerevisiae. To be noted: CONTROL mitochondria of S. cerevisiae; GDP 3 mM, palmitate 48 μM, FCCP 10 μM (uncoupled respiration); basal 144.
Test [2] addresses T1, UCP1 (Rattus norvegicus, UniProt P04633).
T1 construct: made in house; host or cells: Saccharomyces cerevisiae W303, vector pYeDP-UCP (gal-cyc promoter); isolated mitochondria
T1 sequence (P04633 1-307): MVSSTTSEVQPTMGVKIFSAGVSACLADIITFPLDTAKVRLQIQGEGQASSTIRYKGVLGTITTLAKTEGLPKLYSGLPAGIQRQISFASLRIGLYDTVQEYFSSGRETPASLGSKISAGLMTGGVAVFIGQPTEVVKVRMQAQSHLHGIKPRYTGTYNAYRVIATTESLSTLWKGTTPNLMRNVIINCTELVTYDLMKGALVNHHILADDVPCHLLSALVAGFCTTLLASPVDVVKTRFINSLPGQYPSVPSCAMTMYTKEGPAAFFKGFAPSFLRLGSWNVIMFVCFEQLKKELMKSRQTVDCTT
As to the kind of experiment: Respiration rate from oxygen consumption (oxygen electrode), mitochondria that express UCP1. Format: biochemical. The conditions noted are these: UCP1 mitochondria of S. cerevisiae; GDP 3 mM, palmitate 48 μM, FCCP 10 μM (uncoupled respiration); basal 218. As to the method:
(§1) To isolate the mitochondria required for the subsequent experiments, yeasts of the strain Saccharomyces cerevisiae W303 that express UCP1 were inoculated into SP growth medium (0.67% nitrogen substrate, 0.1% casamino acids, 20 mg/ml tryptophan, 40 mg/ml adenine, 0.1% phosphate, 0.12% ammonium sulphate, 0.1% glucose, 2% lactic acid, pH 4.5) 36 hours before extraction of the mitochondria; 12 or 14 hours before extraction they were diluted in SG medium (0.67% nitrogen substrate, 0.1% casamino acids, 20 mg/ml tryptophan, 40 mg/ml adenine, 2% galactose pH 4.5) adjusting the optical density at 600 nm to between 0.3-0.4 absorbance units [Arechaga I, Raimbault S. et al., (1993) Cysteine residues are not essential for uncoupling protein function. Biochem. J. 296. 693-700].
The mitochondria were prepared following a procedure based on that of Guerin et al., [Guerin B, Labbe P. Somlo M (1979) Preparation of yeast mitochondria (Saccharomyces cerevisiae) with good P/O and respiratory ratios Methods Enzymol. 55: 149-159]. The protoplasts are prepared by enzymatic digestion of the cell wall with cytohelicase and after their homogenization mitochondria are isolated by differential centrifugation [Arechaga I., Raimbault S. et al., (1993) Cysteine residues are not essential for uncoupling protein function. Biochem. J. 296. 693-700]. […]

The target of test [3] is T1, UCP1. Nature of the test: Respiration rate by monitoring NADH fluorescence (NADH consumption), mitochondria that express UCP1. Format: biochemical. To be noted: GDP 3 mM, palmitate 48 μM. How it is done:
as §1, with “693-700]. […]” for “693-700].”
The second method, which is the object of the present invention, is based on determining the respiration rate by measuring the consumption of NAD(P)H. All the assays were performed on a 96-well micro-titre standardized plate (Nunc., Denmark). […] Fluorescence measurements were done using a POLAR star Galaxy plate reader (BMG Laboratories OmbH, Offenburg, Germany). […] Changes in the fluorescence signal were determined every 30 seconds in each well with an average of 6-9 readings for each measurement. […] From these values, fluorescence values for the suspension of mitochondria in the absence of NADH (blank) were subtracted. […]

Consider `Nc1nc2c(ncn2[C@@H]2O[C@H](COP(=O)(O)OP(=O)(O)O)[C@@H](O)[C@H]2O)c(=O)[nH]1` [GDP], for which the Oxygen consumption in test [1] was 155 nmoles of oxygen consumed per minute and per mg of protein; in test [2], 149 nmoles of oxygen consumed per minute and per mg of protein. Besides, the “Change in rate of NADH consumption compared to basal levels (in words)” value in test [3] is on record as “reduced compared to basal levels”.

Source of the values: patent US20020177543A1, “Method for determining the activity of uncoupling proteins (UCPs) by monitoring NAD(P)H consumption” (priority 2000, published 2002).
